Experimental data published in patent US12281225B2, “Process for preparing stable polymers containing vinylimidazole” (BASF SE, priority 2018, dated 2025).

What was measured:
[1] = Iodine color number according to DIN 6162:2014-09; type: physicochemical
[2] = test system: Bacteria: Escherichia coli, Staphylococcus aureus, Pseudomonas aeruginosa, Pseudomonas putida, Burkholderia cepacia, Alcaligenes faecalis; assay: Preservation test with periodic inoculation, bacteria assessment; type: cell-based; settings: sample stored 60 d at 40° C.
In short: (§1)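 Semiquantitative growth scores (−− no growth to ++ strong growth) from weekly agar streaks incubated 3 days at 25 °C. Preserved polymer samples got four weekly 0.5 ml inoculations (titer 10^9 organisms/ml), the first two days after preservative addition; testing began fresh and after 60-day storage at 40 °C.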

[3] = test system: Yeast: Candida albicans, Candida valida, Rhodotorula rura, Saccharomyces cerevisiae; assay: Preservation test with periodic inoculation, yeast assessment; type: cell-based; settings: for Start sample measurement, yeast assess., 4th inoculation: freshly formulated; for 60 d 40° C., yeast assess., 4th inoculation: sample stored 60 d at 40° C.
In short: as §1

[4] = Analysis of active substance: preservative concentration before and after storage in VI-containing polymer solution; type: physicochemical; settings: for active-substance concentration, 0 d, RT: before storage; for active-substance concentration, 14 d, 40° C.: storage 14 d at 40° C.; for active-substance concentration, 28 d, 40° C.: storage 28 d at 40° C.; for active-substance concentration, 60 d 40° C.: storage 60 d at 40° C.
In short: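 Preservatives (MIT, BIT, CMIT, OIT, DCOIT, iodopropynyl butyl carbamate) in aqueous vinylpyrrolidone–vinylimidazole copolymer solution quantified after dilution by isocratic RP18 chromatography with UV detection, using an acid-methanol eluent.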

[5] = Polymer P5 (HP56) with stabilizer

CCCCCCCCn1sc(Cl)c(Cl)c1=O [DCOIT, dichloroctylisothiazolinone]
Iodine color number, 60 d 40° C. ([1]; Polymer P1 with stabilizer): 6.2
Iodine color number, start ([1]; Polymer P1 with stabilizer): 3.0
Iodine color number, 60 d 40° C. ([1]; Polymer P2 with stabilizer): 8.1
Iodine color number, start ([1]; Polymer P2 with stabilizer): 3.1
Iodine color number, 60 d 40° C. ([1]; Polymer P3 with stabilizer): 9.1
Iodine color number, start ([1]; Polymer P3 with stabilizer): 3.4
Iodine color number, 60 d 40° C. ([1]; Polymer P4 with stabilizer): 8.9
Iodine color number, start ([1]; Polymer P4 with stabilizer): 3.4
Iodine color number, 60 d 40° C. [1, 5]: 8.7
Iodine color number, start [1, 5]: 3.6
Iodine color number, 60 d 40° C. ([1]; Polymer P6 with stabilizer): 8.4
Iodine color number, start ([1]; Polymer P6 with stabilizer): 3.6
Iodine color number, 60 d 40° C. ([1]; Polymer P7 with stabilizer): 8.4
Iodine color number, start ([1]; Polymer P7 with stabilizer): 3.6
Iodine color number, 60 d 40° C. ([1]; Polymer P8 with stabilizer): 8.9
Iodine color number, start ([1]; Polymer P8 with stabilizer): 3.4
Iodine color number, 60 d 40° C. ([1]; Polymer P9 with stabilizer): 14.7
Iodine color number, start ([1]; Polymer P9 with stabilizer): 3.9
60 d 40° C., bact. assess., 4th inoculation ([2]; Polymer P1): 0 (moderate growth, max. 400 colonies)
60 d 40° C., bact. assess., 4th inoculation ([2]; Polymer P2): +
60 d 40° C., bact. assess., 4th inoculation ([2]; Polymer P3): +
60 d 40° C., bact. assess., 4th inoculation ([2]; Polymer P4): +
60 d 40° C., bact. assess., 4th inoculation ([2]; Polymer P5 (HP56)): +
60 d 40° C., bact. assess., 4th inoculation ([2]; Polymer P6): +
60 d 40° C., bact. assess., 4th inoculation ([2]; Polymer P7): +
60 d 40° C., bact. assess., 4th inoculation ([2]; Polymer P8): +
60 d 40° C., bact. assess., 4th inoculation ([2]; Polymer P9): ++
Start sample measurement, yeast assess., 4th inoculation ([3]; Polymer P1): − (slight growth, max. 100 colonies)
60 d 40° C., yeast assess., 4th inoculation ([3]; Polymer P1): +
Start sample measurement, yeast assess., 4th inoculation ([3]; Polymer P2): − (slight growth, max. 100 colonies)
60 d 40° C., yeast assess., 4th inoculation ([3]; Polymer P2): +
Start sample measurement, yeast assess., 4th inoculation ([3]; Polymer P3): − (slight growth, max. 100 colonies)
60 d 40° C., yeast assess., 4th inoculation ([3]; Polymer P3): ++
Start sample measurement, yeast assess., 4th inoculation ([3]; Polymer P4): − (slight growth, max. 100 colonies)
60 d 40° C., yeast assess., 4th inoculation ([3]; Polymer P4): ++
Start sample measurement, yeast assess., 4th inoculation ([3]; Polymer P5 (HP56)): − (slight growth, max. 100 colonies)
60 d 40° C., yeast assess., 4th inoculation ([3]; Polymer P5 (HP56)): ++
Start sample measurement, yeast assess., 4th inoculation ([3]; Polymer P6): − (slight growth, max. 100 colonies)
60 d 40° C., yeast assess., 4th inoculation ([3]; Polymer P6): +
Start sample measurement, yeast assess., 4th inoculation ([3]; Polymer P7): − (slight growth, max. 100 colonies)
60 d 40° C., yeast assess., 4th inoculation ([3]; Polymer P7): ++
Start sample measurement, yeast assess., 4th inoculation ([3]; Polymer P8): − (slight growth, max. 100 colonies)
60 d 40° C., yeast assess., 4th inoculation ([3]; Polymer P8): 0 (moderate growth, max. 400 colonies)
Start sample measurement, yeast assess., 4th inoculation ([3]; Polymer P9): − (slight growth, max. 100 colonies)
60 d 40° C., yeast assess., 4th inoculation ([3]; Polymer P9): ++
active-substance concentration, 0 d, RT ([4]; in Polymer P1): 300 ppm
active-substance concentration, 14 d, 40° C. ([4]; in Polymer P1): 244 ppm
active-substance concentration, 28 d, 40° C. ([4]; in Polymer P1): 183 ppm
active-substance concentration, 60 d 40° C. ([4]; in Polymer P1): 94 ppm
active-substance concentration, 0 d, RT ([4]; in Polymer P2): 300 ppm
active-substance concentration, 14 d, 40° C. ([4]; in Polymer P2): 244 ppm
active-substance concentration, 28 d, 40° C. ([4]; in Polymer P2): 195 ppm
active-substance concentration, 60 d 40° C. ([4]; in Polymer P2): 109 ppm
active-substance concentration, 0 d, RT ([4]; in Polymer P3): 300 ppm
active-substance concentration, 14 d, 40° C. ([4]; in Polymer P3): 232 ppm
active-substance concentration, 28 d, 40° C. ([4]; in Polymer P3): 183 ppm
active-substance concentration, 60 d 40° C. ([4]; in Polymer P3): 112 ppm
active-substance concentration, 0 d, RT ([4]; in Polymer P4): 300 ppm
active-substance concentration, 14 d, 40° C. ([4]; in Polymer P4): 246 ppm
active-substance concentration, 28 d, 40° C. ([4]; in Polymer P4): 198 ppm
active-substance concentration, 60 d 40° C. ([4]; in Polymer P4): 123 ppm
active-substance concentration, 0 d, RT ([4]; in Polymer P5 (HP56)): 300 ppm
active-substance concentration, 14 d, 40° C. ([4]; in Polymer P5 (HP56)): 230 ppm
active-substance concentration, 28 d, 40° C. ([4]; in Polymer P5 (HP56)): 180 ppm
active-substance concentration, 60 d 40° C. ([4]; in Polymer P5 (HP56)): 94 ppm
active-substance concentration, 0 d, RT ([4]; in Polymer P6): 300 ppm
active-substance concentration, 14 d, 40° C. ([4]; in Polymer P6): 222 ppm
active-substance concentration, 28 d, 40° C. ([4]; in Polymer P6): 184 ppm
active-substance concentration, 60 d 40° C. ([4]; in Polymer P6): 98 ppm
active-substance concentration, 0 d, RT ([4]; in Polymer P7): 300 ppm
active-substance concentration, 14 d, 40° C. ([4]; in Polymer P7): 228 ppm
active-substance concentration, 28 d, 40° C. ([4]; in Polymer P7): 189 ppm
active-substance concentration, 60 d 40° C. ([4]; in Polymer P7): 106 ppm
active-substance concentration, 0 d, RT ([4]; in Polymer P8): 300 ppm
active-substance concentration, 14 d, 40° C. ([4]; in Polymer P8): 230 ppm
active-substance concentration, 28 d, 40° C. ([4]; in Polymer P8): 180 ppm
active-substance concentration, 60 d 40° C. ([4]; in Polymer P8): 94 ppm
active-substance concentration, 0 d, RT ([4]; in Polymer P9): 300 ppm
active-substance concentration, 14 d, 40° C. ([4]; in Polymer P9): 219 ppm
active-substance concentration, 28 d, 40° C. ([4]; in Polymer P9): 165 ppm
active-substance concentration, 60 d 40° C. ([4]; in Polymer P9): 87 ppm
